Records with an inconclusive call do not appear. Active and inactive are the calls of the source.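 How the source made its calls: active means compound lowering the normal-ribosome reporter at least twice as much as the humanized-ribosome reporter, growth loss under a set limit; inconclusive means no clear call, values can overlap the other calls; inactive means the rest.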
System: E. coli WT-GFP vs G2058-humanized RFP, fluorescence, 24 h
Assay: growth inhibition of wild-type GFP E. coli versus G2058-humanized strain, dose response, G2058 mutant RFP vs wild-type GFP, cherry-pick, two tests (AID 1035470)
[1] = E. coli WT-GFP vs G2058-humanized RFP mixed culture, total growth OD600, 24 h
[2] = measured here: G2058 humanized mutant RFP growth

SMILES	AC50	AC50 [1] [µM]	AC50 [2] [µM]
O=C(C[C@H]1CC[C@H](NC(=O)Nc2ccccc2F)[C@H](CO)O1)NCc1ccc(-c2ccccc2)cc1	> 100 µM (inactive)	> 100	–
OCCN(Cc1ccccc1)Cc1ccc(F)c(F)c1	> 100 µM (inactive)	–	–
Nc1ccccc1C#CC(=O)c1ccccc1	–	49	–
NC(=O)CSc1nc2cc([N+](=O)[O-])ccc2n1-c1cccc(C(F)(F)F)c1	> 100 µM (inactive)	> 100	–
CCn1nc(C(=O)OCc2cccc(S(=O)(=O)N(C)C)c2)c2ccccc2c1=O	> 100 µM (inactive)	–	–
Cc1ccc(C2NC(=O)c3[nH]nc(-c4ccccc4)c32)cc1 (centres undefined)	> 100 µM (inactive)	> 100	–
COc1ccccc1N1CCN(Cc2ccc(OC)c3ccccc23)CC1	–	> 100	–
N#Cc1cccc(-c2ccc3c(c2)[C@H]2[C@H](CCN2C(=O)c2ccccc2F)[C@H](CO)N3)c1	> 100 µM (inactive)	–	–
O=C(COC(=O)c1ccc([N+](=O)[O-])o1)NC12CC3CC(CC(C3)C1)C2	> 100 µM (inactive)	–	–
O=c1[nH]c(C2CCCN(S(=O)(=O)c3ccccc3Cl)C2)nc2c1nnn2Cc1ccc2c(c1)OCCO2 (centres undefined)	> 100 µM (inactive)	–	–
CC(C)(C)NC(=O)C(c1ccncc1)N(Cc1ccc(F)cc1)C(=O)c1ccc(-c2ccccc2)[nH]1 (centres undefined)	–	> 100	–
Cc1ccccc1-n1c([C@@H]2C[C@H]2c2ccccc2)n[nH]c1=S	–	> 100	–
Cc1ccn2cc(-c3cccc(NC(=O)c4cccs4)c3)nc2c1	> 100 µM (inactive)	> 100	–
COc1ccc(NC(=O)Nc2cccc3c2O[C@H](CN(C)S(=O)(=O)c2ccc(Cl)cc2)[C@@H](C)CN([C@H](C)CO)C3=O)cc1	> 100 µM (inactive)	–	–
COc1ccc(NC(=O)CCC(=O)c2cccs2)cc1S(=O)(=O)Nc1ccc(Cl)cc1	> 100 µM (inactive)	–	–
O=S1(=O)c2ccc(Br)cc2OCCC2CCCCN21 (centres undefined)	> 100 µM (inactive)	> 100	–
CCCC(=O)Nc1sc2c(c1C(=O)Nc1ccccn1)CCCC2	> 100 µM (inactive)	> 100	–
O=[N+]([O-])c1ccc(N2CCOCC2)c2c1no[n+]2[O-]	–	–	0.638
Cc1ccc(OCCCC(=O)NC(C)c2ccccc2)c(C)c1 (centres undefined)	> 100 µM (inactive)	–	–
COc1ccc(-c2nc3ccc(Cl)cn3c2Cc2cccc(F)c2)cc1OC	> 100 µM (inactive)	–	–
COc1cccc(S(=O)(=O)N2CCCCN3[C@H](CO)[C@H](c4ccc(C#CC(C)C)cc4)[C@@H]3C2)c1	> 100 µM (inactive)	> 100	–
COc1ccc(OC)c(NC(=O)COc2ccc(S(=O)(=O)NC(C)C)cc2)c1	–	> 100	–

SMILES	AC50	AC50 [1] [µM]	AC50 [2] [µM]
CC(C)n1nnnc1C1c2ccccc2C(=O)N1CCOc1ccccc1 (centres undefined)	> 100 µM (inactive)	–	–
Cc1cc(C)c(OCCN(C)Cc2ccccc2)c(Br)c1	–	> 100	–
Cc1ccc(NS(=O)(=O)c2ccc3c(c2)CCC(=O)N3)cc1C	> 100 µM (inactive)	> 100	–
COc1ccc(NC(=O)CSc2nnc(Cc3ccccc3)o2)c(OC)c1	> 100 µM (inactive)	> 100	–
C[C@H](CO)N1C[C@H](C)[C@H](CN(C)C(=O)Nc2ccc3c(c2)OCO3)Oc2c(NC(=O)Nc3ccccc3)cccc2C1=O	> 100 µM (inactive)	–	–
COc1ccc(NC(=O)c2sccc2-n2cccc2)cc1	> 100 µM (inactive)	> 100	–
Cc1ccc(SCC(=O)Nc2ccc(S(=O)(=O)Nc3nccs3)cc2)cc1	> 100 µM (inactive)	> 100	–
CNC(=O)c1cc(C(=O)c2ccc(C(F)(F)F)cc2F)c[nH]1	> 100 µM (inactive)	> 100	–
CC(C)(CC(=O)O)CC(=O)NCc1c(Cl)cccc1Sc1ccc(Cl)cc1	> 100 µM (inactive)	–	–
Cc1ccccc1-n1nnnc1SCCCC(=O)c1ccc(F)cc1	–	–	> 100
CCCCCc1nnc(NC(=O)C2COc3ccccc3O2)s1 (centres undefined)	> 100 µM (inactive)	> 100	23.2
COc1ccc(OC)c(C(=O)COC(=O)c2ccc([N+](=O)[O-])o2)c1	> 100 µM (inactive)	> 100	–
O=C(Nc1cccc(Oc2ccc3c(c2)C(=O)NC3=O)c1)c1cccs1	> 100 µM (inactive)	–	–
CCOc1cccc(-c2cc(-c3n[nH]c(=S)n3CC)c3ccccc3n2)c1	> 100 µM (inactive)	–	–
CN(C)CCCN(C(=O)CCSc1ccccc1)c1nc2cc3c(cc2s1)OCO3	> 100 µM (inactive)	> 100	–
CCOc1ccc(C(C)=O)cc1CN1C(=O)NC2(CCCCCCC2)C1=O	> 100 µM (inactive)	> 100	–
COc1ccc(-c2csc(NC(=O)c3ccoc3C)n2)cc1	–	> 100	–
N#Cc1ccc(C(=O)Nc2ccn(-c3ccccc3)n2)cc1	> 100 µM (inactive)	–	–
O=S(=O)(NC1c2cccc3cccc(c23)C1Sc1ncccn1)c1ccccc1 (centres undefined)	> 100 µM (inactive)	3.21	–
C[n+]1ccccc1/C=C/c1cc(Br)ccc1O	> 100 µM (inactive)	–	–
CC(C)C[C@@H](CSc1ccccc1)N1CCN(CC(C)C)CCC1=O	> 100 µM (inactive)	> 100	–
O=C(CSCc1c(Cl)cccc1Cl)NCc1ccccn1	> 100 µM (inactive)	–	–

SMILES	AC50	AC50 [1] [µM]	AC50 [2] [µM]
CC(C)Oc1ccc(C(CC(=O)O)NC(=O)C(Sc2ccccc2)c2ccccc2)cc1 (centres undefined)	> 100 µM (inactive)	–	–
COc1ccc(-c2nc3c(C)cc(Br)cn3c2Cc2ccc(C)cc2)cc1OC	> 100 µM (inactive)	–	–
O=C(O)CC(CC(=O)Nc1ccc2ccccc2n1)c1ccccc1 (centres undefined)	–	–	> 100
CCC(C(=O)NC1CCCC1)n1c(-c2ccnc3ccccc23)nc2ccccc21 (centres undefined)	–	> 100	–
COc1ccc(Cn2c(=O)c3[nH]cnc3n(-c3ccc(C)cc3)c2=O)cc1	> 100 µM (inactive)	> 100	–
O=C(CCCSc1nc2ccccc2s1)NCc1ccc2c(c1)OCO2	> 100 µM (inactive)	–	–
Cc1nc(C)c(-c2ccn(S(=O)(=O)c3ccc(Cl)cc3)n2)o1	> 100 µM (inactive)	–	–
CCCCc1ccc(S(=O)(=O)Nc2ccc(C)c(NS(C)(=O)=O)c2)cc1	> 100 µM (inactive)	–	–
c1ccc(Nc2ccc3ccccc3c2)cc1	> 100 µM	–	> 100
COc1ccc(-n2ccnc2SCC(=O)NCc2ccccc2)c(OC)c1	> 100 µM (inactive)	> 100	–
Cc1cc(C)c(S(=O)(=O)NCCOc2ccccc2)c(C)c1-n1cnnn1	> 100 µM (inactive)	–	–
C=CCN(c1ccccc1)S(=O)(=O)c1ccc(Cl)c(C(=O)OCC(=O)NCCCN2CCCC2=O)c1	–	> 100	–
O=C(CSc1nc(C2CC2)nc2ccccc12)Nc1ccccc1N1CCOCC1	> 100 µM (inactive)	> 100	–
NS(=O)(=O)c1ccc(Nc2c([N+](=O)[O-])cncc2[N+](=O)[O-])cc1	> 100 µM (inactive)	–	–
COc1ccc(CNC(=O)c2sc3nc4c(c(C(F)(F)F)c3c2N)CCC4)cc1OC	–	–	> 100
CC1(C(=O)NS(=O)(=O)c2cccc(Cl)c2)CCN1C(=O)C1(c2ccc(Cl)cc2)CCC1 (centres undefined)	> 100 µM (inactive)	–	–
O=C(Nc1cccc2ccccc12)c1ccc([N+](=O)[O-])o1	> 100 µM (inactive)	> 100	–
CC(C)(C)N(Cc1ccccc1)C(=O)COC(=O)Cn1cnc2ccccc2c1=O	–	> 100	–
COc1ccc(CC(=O)NC(C)c2ccc3ccccc3c2)cc1 (centres undefined)	–	–	5.4
CCN(CC)CCn1c(SCC(=O)Nc2cccc(OC)c2)nc2c(sc3ccccc32)c1=O	> 100 µM (inactive)	> 100	–
Cc1cc(C)n2nc(C(=O)Nc3cccc(S(=O)(=O)N(C)c4ccccc4)c3)nc2n1	> 100 µM (inactive)	–	–
O=C(C1Cc2ccccc2CN1C(=O)c1ccccc1)N1CCN(c2ccccc2)CC1 (centres undefined)	> 100 µM (inactive)	> 100	> 100

SMILES	AC50	AC50 [1] [µM]	AC50 [2] [µM]
CCN(C(=O)CSc1cc(C)c2ccc(OC)cc2n1)C1CCS(=O)(=O)C1 (centres undefined)	> 100 µM (inactive)	–	3.93
CCOC(=O)c1sc(NC(=O)CN2CCN(c3ccccc3)CC2)nc1C	> 100 µM (inactive)	> 100	–
COc1cc2c(cc1OC)CN(CC(=O)Nc1ccccc1SC)CC2	> 100 µM (inactive)	> 100	47.2
O=C(Nc1ccc(Cl)cc1)N1C[C@H]2[C@@H](c3ccccc31)[C@@H](CO)N2C(=O)c1ccccn1	> 100 µM (inactive)	–	–
C[C@@H]1CN([C@@H](C)CO)C(=O)c2cccc(NC(=O)c3nc4ccccc4s3)c2O[C@@H]1CN(C)CC1CC1	–	> 100	–
Cc1c(C(=O)O)oc2ccc(S(=O)(=O)NC3CCCCCCC3)cc12	> 100 µM (inactive)	–	–
Cc1ccccc1S(=O)(=O)c1cc2ccccc2nc1N	–	> 100	–
O=C(c1ccc(Cl)cc1)N1CCN(c2cccc3[nH]ccc23)CC1	> 100 µM (inactive)	> 100	–
Cc1ccc(-c2nc3ccc(NS(=O)(=O)c4ccccc4)cc3[nH]2)o1	> 100 µM (inactive)	–	–
Cc1cc([N+](=O)[O-])nn1CC(=O)Nc1cc(F)ccc1F	> 100 µM (inactive)	–	–
O=C(COC(=O)Cc1ccccc1F)Nc1ccc(Cl)cn1	> 100 µM (inactive)	–	–
O=C(O)c1ccccc1-c1ccccc1C(=O)Nc1ccc2c(c1)CCC2	> 100 µM (inactive)	–	–
CCc1nnc(NS(=O)(=O)c2ccc(NC(=O)c3cccc(Cl)c3)cc2)s1	> 100 µM (inactive)	> 100	> 100
Cc1ccc(Oc2ccc(S(=O)(=O)N3CCOCC3)cc2C(N)=O)cc1C	> 100 µM (inactive)	> 100	–
COc1cccc(OC)c1CNC(=O)CCSCc1ccccc1F	> 100 µM (inactive)	> 100	–
CCOC(=O)C1(CCCc2ccccc2)CCN(C(=O)CCn2cncn2)CC1	> 100 µM (inactive)	–	–
COc1ccc(OC2C(=O)N(Cc3ccc4c(c3)OCO4)C2c2sccc2C)cc1 (centres undefined)	> 100 µM (inactive)	> 100	–
Cc1cc2nc(SCC(=O)O)nc(C)c2cc1C	> 100 µM (inactive)	> 100	–
O=C(c1ccccc1)C1Oc2ccccc2C2CC(c3cccs3)=NN12 (centres undefined)	> 100 µM (inactive)	–	–
CCN(CC)CCN(C(=O)c1ccc2c(c1)OCCO2)c1nc2c(Cl)cccc2s1	> 100 µM (inactive)	–	–

— PubChem BioAssay AID1035470 (Broad Institute, 2014)
